Experimental data from patent US20250381168A1, “VLA4 INHIBITORS AND USES THEREOF” (Washington University, priority 2022, published 2025).
Like-named read-outs stand apart in the source and are kept apart here.

Assays:
integrin a4b7 = integrin a4b7 (Homo sapiens (Human), UniProt P13612+P26010); experiment: a4b7 solid phase receptor assay (SPRA); conditions: recombinant human a4b7 binding to plate-coated human VCAM1 (TABLE 4)
Method: Wells were washed 3 times with TBS+ and blocking buffer (TBS+ with 1% bovine serum albumin), the plate was incubated for 1 hr at 37° C., and then washed 3× with TBS+ buffer. Recombinant human a4b7 (R & D Systems) was diluted to 1 μg/ml in TBS+/0.1% bovine serum albumin. Test compounds were diluted into the integrin solution and added to the washed ligand-coated plate according to a standard template with each sample repeated in triplicate. After incubation for 2 hr at room temperature, the plate was washed 3× with 150 μl of TBS+ buffer. To each well, biotinylated anti-A4 antibody (R & D Systems) at 1 μg/ml in TBS+/0.1% BSA was added and the plate covered and incubated for 1 hr at room temperature. After washing the plate 3× with TBS+ buffer, streptavidin-conjugated horseradish peroxidase (R & D Systems) diluted in TBS+ blocking buffer was added to the wells and the plate incubated for 20 min at room temperature. The plate was washed 3× with TBS+ buffer followed by addition of 50 μl of TMB substrate (Sigma T4444). After incubation for 20 min at room temperature, plates were stopped with TMB stop solution (Sigma S5689) by colorimetric detection at 450 nm wavelength using a Tecan Safire II plate reader.

[1] = system: hematopoietic stem/progenitor cells (HSPCs); experiment: HSPC mobilization into peripheral blood, colony forming unit (CFU) assay; conditions: mice
VLA-4 (a4b1) = VLA-4 (a4b1) (Homo sapiens (Human), UniProt P05556+P13612); experiment: sVCAM flow cytometry cell-based assay (inhibition of soluble VCAM-1 binding to G2 ALL cells);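 note: compounds at 0.1 to 1000 nM preincubated 30 min with G2 ALL cells, then VCAM/Fc added for 30 min, bound VCAM-1 detected by PE secondary antibody, percent binding cells by flow cytometry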
Sequence of VLA-4 (a4b1) (P13612 34-1032): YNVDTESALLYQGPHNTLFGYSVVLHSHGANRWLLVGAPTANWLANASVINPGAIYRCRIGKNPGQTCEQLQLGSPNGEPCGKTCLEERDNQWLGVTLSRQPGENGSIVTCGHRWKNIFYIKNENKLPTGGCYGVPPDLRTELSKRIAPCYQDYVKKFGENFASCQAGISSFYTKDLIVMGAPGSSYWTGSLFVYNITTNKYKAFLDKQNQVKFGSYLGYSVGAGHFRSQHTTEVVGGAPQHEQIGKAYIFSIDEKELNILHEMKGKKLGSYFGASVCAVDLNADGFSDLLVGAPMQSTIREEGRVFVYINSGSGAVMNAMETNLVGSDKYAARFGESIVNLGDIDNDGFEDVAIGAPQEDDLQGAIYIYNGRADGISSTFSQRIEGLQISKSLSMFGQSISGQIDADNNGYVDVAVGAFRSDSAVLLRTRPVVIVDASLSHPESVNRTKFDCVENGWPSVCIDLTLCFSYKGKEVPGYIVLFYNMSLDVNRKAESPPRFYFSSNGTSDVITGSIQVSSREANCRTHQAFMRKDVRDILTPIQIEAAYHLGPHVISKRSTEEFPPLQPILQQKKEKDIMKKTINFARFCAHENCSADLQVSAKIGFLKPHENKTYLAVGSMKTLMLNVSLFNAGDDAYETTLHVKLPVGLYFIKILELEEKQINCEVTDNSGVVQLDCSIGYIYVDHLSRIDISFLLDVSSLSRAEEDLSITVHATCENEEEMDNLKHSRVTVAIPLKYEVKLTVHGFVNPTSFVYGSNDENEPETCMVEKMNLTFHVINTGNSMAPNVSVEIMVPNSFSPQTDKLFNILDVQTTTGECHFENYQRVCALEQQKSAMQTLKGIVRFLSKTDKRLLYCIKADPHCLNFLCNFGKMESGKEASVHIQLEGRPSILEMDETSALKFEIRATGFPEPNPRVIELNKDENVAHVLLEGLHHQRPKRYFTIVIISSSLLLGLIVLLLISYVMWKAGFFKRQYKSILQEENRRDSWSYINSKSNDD
Sequence of VLA-4 (a4b1) (P05556 21-798): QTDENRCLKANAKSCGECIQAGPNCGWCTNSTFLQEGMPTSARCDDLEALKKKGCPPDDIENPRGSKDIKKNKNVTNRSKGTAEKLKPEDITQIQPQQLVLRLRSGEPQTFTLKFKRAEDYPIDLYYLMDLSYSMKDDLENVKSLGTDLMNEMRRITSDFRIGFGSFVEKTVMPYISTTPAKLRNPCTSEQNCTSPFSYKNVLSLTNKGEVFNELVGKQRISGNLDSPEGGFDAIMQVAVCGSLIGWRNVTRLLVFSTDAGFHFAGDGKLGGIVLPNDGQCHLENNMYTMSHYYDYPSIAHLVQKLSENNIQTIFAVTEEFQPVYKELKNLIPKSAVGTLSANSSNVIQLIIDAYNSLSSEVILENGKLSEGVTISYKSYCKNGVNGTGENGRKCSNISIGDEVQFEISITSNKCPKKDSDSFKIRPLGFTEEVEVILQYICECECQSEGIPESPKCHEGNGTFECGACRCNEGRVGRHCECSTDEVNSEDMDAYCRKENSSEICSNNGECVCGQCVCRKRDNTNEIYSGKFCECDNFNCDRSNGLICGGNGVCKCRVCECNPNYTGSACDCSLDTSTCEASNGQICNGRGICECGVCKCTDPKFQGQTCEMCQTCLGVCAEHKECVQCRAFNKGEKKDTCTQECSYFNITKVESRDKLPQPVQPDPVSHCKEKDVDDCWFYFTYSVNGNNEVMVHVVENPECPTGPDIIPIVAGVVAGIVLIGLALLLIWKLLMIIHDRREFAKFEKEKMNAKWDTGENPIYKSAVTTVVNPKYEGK

Sequence of integrin a4b7 (P13612 34-970): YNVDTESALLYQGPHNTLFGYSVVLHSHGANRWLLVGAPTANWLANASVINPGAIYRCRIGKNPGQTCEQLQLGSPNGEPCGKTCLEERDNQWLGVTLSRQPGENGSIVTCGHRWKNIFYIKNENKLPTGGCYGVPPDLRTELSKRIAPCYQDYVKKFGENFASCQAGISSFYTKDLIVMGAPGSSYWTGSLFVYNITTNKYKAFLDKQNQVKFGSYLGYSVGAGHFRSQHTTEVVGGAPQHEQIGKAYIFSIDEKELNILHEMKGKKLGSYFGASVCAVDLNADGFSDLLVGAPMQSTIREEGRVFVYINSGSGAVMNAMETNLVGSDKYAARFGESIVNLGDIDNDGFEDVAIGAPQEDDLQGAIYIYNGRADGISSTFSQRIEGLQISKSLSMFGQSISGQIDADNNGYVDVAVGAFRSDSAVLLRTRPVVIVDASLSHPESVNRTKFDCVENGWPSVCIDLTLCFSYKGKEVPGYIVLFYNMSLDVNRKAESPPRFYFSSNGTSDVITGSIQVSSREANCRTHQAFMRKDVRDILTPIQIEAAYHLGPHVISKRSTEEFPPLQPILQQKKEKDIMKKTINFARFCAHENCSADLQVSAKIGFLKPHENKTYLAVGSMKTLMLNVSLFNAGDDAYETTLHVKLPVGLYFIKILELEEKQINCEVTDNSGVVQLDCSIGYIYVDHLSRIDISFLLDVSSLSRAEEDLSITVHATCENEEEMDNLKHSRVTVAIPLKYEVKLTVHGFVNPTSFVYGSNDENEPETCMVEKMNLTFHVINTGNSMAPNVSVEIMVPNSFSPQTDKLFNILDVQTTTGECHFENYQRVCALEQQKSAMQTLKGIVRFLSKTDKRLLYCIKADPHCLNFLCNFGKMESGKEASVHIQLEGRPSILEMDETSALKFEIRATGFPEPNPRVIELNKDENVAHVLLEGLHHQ
Sequence of integrin a4b7 (P26010 20-723): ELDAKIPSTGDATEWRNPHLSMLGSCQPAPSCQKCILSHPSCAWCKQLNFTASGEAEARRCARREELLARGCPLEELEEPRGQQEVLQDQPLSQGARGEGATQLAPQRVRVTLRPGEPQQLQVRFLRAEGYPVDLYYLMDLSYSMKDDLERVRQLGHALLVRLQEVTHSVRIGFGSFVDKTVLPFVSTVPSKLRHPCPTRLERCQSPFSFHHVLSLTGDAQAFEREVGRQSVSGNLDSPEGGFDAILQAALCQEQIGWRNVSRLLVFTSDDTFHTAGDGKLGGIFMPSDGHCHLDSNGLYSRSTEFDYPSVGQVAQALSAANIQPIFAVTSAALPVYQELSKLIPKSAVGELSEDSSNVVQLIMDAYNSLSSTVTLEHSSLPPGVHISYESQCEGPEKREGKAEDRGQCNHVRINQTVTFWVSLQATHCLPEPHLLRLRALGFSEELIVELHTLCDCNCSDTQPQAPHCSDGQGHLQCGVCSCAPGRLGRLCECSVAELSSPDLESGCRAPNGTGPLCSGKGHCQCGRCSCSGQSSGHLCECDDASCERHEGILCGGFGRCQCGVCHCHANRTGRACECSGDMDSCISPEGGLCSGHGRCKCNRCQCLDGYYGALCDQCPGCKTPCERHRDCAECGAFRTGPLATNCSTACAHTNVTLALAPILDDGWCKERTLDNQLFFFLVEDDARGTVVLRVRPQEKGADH

SMILES: COCCOCCOCCOCCOCCOCCOCCOCCOCCOCCOCCOCCOCCOCCOCCOCCOCCOCCOCCOCCOCCOCCOCCOCCOCc1cc(OC)c(-c2ccc(C[C@H](NC(=O)[C@@H]3CCCN3S(=O)(=O)c3cc(Cl)cc(Cl)c3)C(=O)O)cc2)c(OC)c1 [Example 1]
- IC50 (integrin a4b7): 5.6 nM
- HSPC mobilization in the triple combination regimen with plerixafor and truncated Groβ [1]: high degree of extended mobilization
- No. CFU (×10^3)/mL ± SD, 2 hr ([1]; alone or in combination with Plerixafor and tGroβ, peripheral blood, 2 hr (TABLE 17)): 5.69 ± 2.57 (×10^3)/mL
- No. CFU (×10^3)/mL ± SD, 4 hr ([1]; alone or in combination with Plerixafor and tGroβ, peripheral blood, 4 hr (TABLE 17)): 4.82 ± 1.07 (×10^3)/mL
- No. CFU (×10^3)/mL ± SD, 6 hr ([1]; alone or in combination with Plerixafor and tGroβ, peripheral blood, 6 hr (TABLE 17)): 2.97 ± 0.65 (×10^3)/mL
- HSPC mobilization, result in words ([1]; single dose): significant HSPC mobilization at 4 hours
- No. CFU (×10^3)/mL ± SD, 2 hr ([1]; single dose alone or in combination with AMD3100 (5 mg/kg s.c.), peripheral blood, 2 hr (TABLE 14)): 5.94 ± 4.52 (×10^3)/mL
- No. CFU (×10^3)/mL ± SD, 3 hr ([1]; single dose alone or in combination with AMD3100 (5 mg/kg s.c.), peripheral blood, 3 hr (TABLE 14)): 6.42 ± 4.64 (×10^3)/mL
- No. CFU (×10^3)/mL ± SD, 5 hr ([1]; single dose alone or in combination with AMD3100 (5 mg/kg s.c.), peripheral blood, 5 hr (TABLE 14)): 5.02 ± 1.67 (×10^3)/mL
- No. CFU (x10^3)/mL ± SD, 4 hr ([1]; single dose alone or in combination with Plerixafor (5 mg/kg s.c.), peripheral blood, 4 hr (TABLE 15)): 2.65 ± 1.15 (x10^3)/mL
- No. CFU (x10^3)/mL ± SD, 6 hr ([1]; single dose alone or in combination with Plerixafor (5 mg/kg s.c.), peripheral blood, 6 hr (TABLE 15)): 1.43 ± 0.56 (x10^3)/mL
- No. CFU (x10^3)/mL ± SD, 24 hr ([1]; single dose alone or in combination with Plerixafor (5 mg/kg s.c.), peripheral blood, 24 hr (TABLE 15)): 0.22 ± 0.10 (x10^3)/mL
- effect on extended HSPC mobilization in combination with a single dose of the CXCR4 inhibitor AMD3100 (Plerixafor) ([1]; single dose of each agent): synergistic effects
- No. CFU (×10^3)/mL ± SD, 0.25 hr ([1]; single dose, peripheral blood, 0.25 hr post dose (TABLE 8)): 4.10 ± 1.53 (×10^3)/mL
- No. CFU (×10^3)/mL ± SD, 0.5 hr ([1]; single dose, peripheral blood, 0.5 hr post dose (TABLE 7)): 1.22 ± 0.35 (×10^3)/mL
- No. CFU (×10^3)/mL ± SD, 2 hr ([1]; single dose, peripheral blood, 2 hr post dose (TABLE 7)): 2.12 ± 1.04 (×10^3)/mL
- No. CFU (×10^3)/mL ± SD, 2 hr ([1]; single dose, peripheral blood, 2 hr post dose (TABLE 8)): 4.79 ± 2.05 (×10^3)/mL
- No. CFU (×10^3)/mL ± SD, 2 hr ([1]; single dose, peripheral blood, 2 hr post dose (TABLE 9)): 4.72 ± 1.19 (×10^3)/mL
- No. CFU (×10^3)/mL ± SD, 2 hr ([1]; single dose, peripheral blood, 2 hr post dose (TABLE 10)): 4.18 ± 1.99 (×10^3)/mL
- No. CFU (x10^3)/mL ± SD, 2 hr ([1]; single dose, peripheral blood, 2 hr post dose (TABLE 11)): 3.14 ± 0.63 (x10^3)/mL
- No. CFU (×10^3)/mL ± SD, 4 hr ([1]; single dose, peripheral blood, 4 hr post dose (TABLE 7)): 2.30 ± 0.25 (×10^3)/mL
- No. CFU (×10^3)/mL ± SD, 4 hr ([1]; single dose, peripheral blood, 4 hr post dose (TABLE 8)): 4.43 ± 0.66 (×10^3)/mL
- No. CFU (×10^3)/mL ± SD, 4 hr ([1]; single dose, peripheral blood, 4 hr post dose (TABLE 9)): 5.00 ± 1.26 (×10^3)/mL
- No. CFU (×10^3)/mL ± SD, 4 hr ([1]; single dose, peripheral blood, 4 hr post dose (TABLE 10)): 4.41 ± 0.89 (×10^3)/mL
- No. CFU (x10^3)/mL ± SD, 4 hr ([1]; single dose, peripheral blood, 4 hr post dose (TABLE 11)): 4.14 ± 1.31 (x10^3)/mL
- No. CFU (×10^3)/mL ± SD, 4 hr ([1]; single dose, peripheral blood, 4 hr post dose (TABLE 18)): 5.18 ± 1.99 (×10^3)/mL
- No. CFU (×10^3)/mL ± SD, 6 hr ([1]; single dose, peripheral blood, 6 hr post dose (TABLE 9)): 1.84 ± 0.63 (×10^3)/mL
- No. CFU (×10^3)/mL ± SD, 6 hr ([1]; single dose, peripheral blood, 6 hr post dose (TABLE 10)): 1.78 ± 0.38 (×10^3)/mL
- No. CFU (x10^3)/mL ± SD, 6 hr ([1]; single dose, peripheral blood, 6 hr post dose (TABLE 11)): 2.20 ± 0.63 (x10^3)/mL
- No. CFU (×10^3)/mL ± SD, 8 hr ([1]; single dose, peripheral blood, 8 hr post dose (TABLE 18)): 2.00 ± 0.66 (×10^3)/mL
- No. CFU (x10^3)/mL ± SD, 24 hr ([1]; single dose, peripheral blood, 24 hr post dose (TABLE 11)): 0.29 ± 0.11 (x10^3)/mL
- No. CFU (×10^3)/mL ± SD, 24 hr ([1]; single dose, peripheral blood, 24 hr post dose (TABLE 18)): 0.46 ± 0.30 (×10^3)/mL
- No. CFU (x10^3)/mL ± SD, 2 hr ([1]; single injection, peripheral blood, 2 hr post dose (TABLE 12)): 4.72 ± 0.33 (x10^3)/mL
- No. CFU (x10^3)/mL ± SD, 4 hr ([1]; single injection, peripheral blood, 4 hr post dose (TABLE 12)): 3.38 ± 0.21 (x10^3)/mL
- No. CFU (x10^3)/mL ± SD, 6 hr ([1]; single injection, peripheral blood, 6 hr post dose (TABLE 12)): 2.87 ± 0.39 (x10^3)/mL
- No. CFU (x10^3)/mL ± SD, 8 hr ([1]; single injection, peripheral blood, 8 hr post dose (TABLE 12)): 1.12 ± 0.48 (x10^3)/mL
- IC50 (VLA-4 (a4b1); as listed in TABLE 7, read-out: sVCAM IC50): 0.373 nM
- IC50 (VLA-4 (a4b1); as listed in TABLE 8, read-out: sVCAM IC50): 0.373 nM
- IC50 (VLA-4 (a4b1); as listed in TABLE 9, read-out: sVCAM IC50): 0.373 nM
- IC50 (VLA-4 (a4b1); as listed in TABLE 10, read-out: sVCAM IC50): 0.373 nM
- IC50 (VLA-4 (a4b1); as listed in TABLE 11, read-out: sVCAM IC50): 0.373 nM
- IC50 (VLA-4 (a4b1); as listed in TABLE 12, read-out: sVCAM IC50): 0.373 nM
- IC50 (VLA-4 (a4b1); as listed in TABLE 14, read-out: sVCAM IC50): 0.373 nM
- IC50 (VLA-4 (a4b1); as listed in TABLE 15, read-out: sVCAM IC50): 0.373 nM
- IC50 (VLA-4 (a4b1); as listed in TABLE 17, read-out: sVCAM IC50): 0.373 nM
- IC50 (VLA-4 (a4b1); as listed in TABLE 18, read-out: sVCAM IC50): 0.373 nM
- IC50 (VLA-4 (a4b1); inhibition of sVCAM-1 binding to human G2 ALL cells (TABLE 3), read-out: SVCAM-1, IC50): 0.373 nM
